Laboratory results as given in PubChem BioAssay (NCI).
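Five concentrations, 48 hours, 96-well plates. The concentration for 50% growth inhibition is given as GI50. TGI denotes the concentration required for complete inhibition of growth.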

Assays:
Assay in all cases: growth of human tumour cells (NCI), 48 h
[1] = test system: UACC-257 melanoma
[2] = test system: M14 melanoma
[3] = test system: LOX IMVI melanoma
[4] = test system: A498 renal
[5] = test system: MALME-3M melanoma
[6] = test system: T-47D breast
[7] = test system: HOP-62 NSCLC
[8] = test system: HL-60(TB) leukemia
[9] = test system: SF-268 CNS
[10] = test system: BT-549 breast

| SMILES | GI50 [1] | TGI [1] | GI50 [2] | TGI [2] | GI50 [3] | TGI [3] | GI50 [4] | TGI [4] | GI50 [5] | TGI [5] | GI50 [6] | TGI [6] | GI50 [7] | TGI [7] | GI50 [8] | TGI [8] | GI50 [9] | TGI [9] | TGI [10] | GI50 [10] |
| --- | --- | --- | --- | --- | --- | --- | --- | --- | --- | --- | --- | --- | --- | --- | --- | --- | --- | --- | --- | --- |
| COc1cc2c(/C=C3/C(=O)Nc4ccc(O)cc43)c(Cl)n(Cc3cc(OC)c(OC)c(OC)c3)c2cc1C | 3.43 µM | > 47.6 µM | 1.93 µM | 51 µM | 2.05 µM | 16.3 µM | 3.09 µM | > 30.2 µM | 494 nM | 3.91 µM | 5.55 µM | > 70.8 µM | 1650 nM | 29.4 µM | 1970 nM | 10.3 µM | 4.64 µM | > 100 µM | – | – |
| O=C(CC1(O)C(=O)Nc2ccccc21)c1ccc(Cl)cc1Cl (stereo unspecified) | – | > 100 µM | – | > 100 µM | – | > 100 µM | – | > 100 µM | – | > 100 µM | – | – | – | – | – | > 100 µM | – | > 100 µM | – | – |
| O=S1(=O)c2cc(S(=O)(=O)n3ccnc3)ccc2NC2=NCCCN21 | – | > 100 µM | – | > 100 µM | – | > 100 µM | – | 62.3 µM | – | > 100 µM | – | – | – | 63.6 µM | – | 36.4 µM | – | > 100 µM | – | – |
| CCc1cccc(C(C)CC)c1NC(=O)C(=O)Cc1nc2ccccc2o1 (stereo unspecified) | – | > 50 µM | – | > 50 µM | – | > 50 µM | – | > 50 µM | – | > 50 µM | – | – | – | > 50 µM | – | > 50 µM | – | > 50 µM | – | – |
| O=C1OC(c2ccc(Cl)cc2)=N/C1=C\c1ccccc1 | – | > 100 µM | – | > 100 µM | – | > 100 µM | – | – | – | – | – | > 100 µM | – | > 100 µM | – | > 100 µM | – | > 100 µM | > 100 µM | – |
| COC(=O)/C(=N\NC(N)=O)C(C#N)c1ccccc1 (stereo unspecified) | – | > 100 µM | – | > 100 µM | – | > 100 µM | – | > 100 µM | – | > 100 µM | – | – | – | > 100 µM | – | > 100 µM | – | > 100 µM | – | – |
| CC(=O)NCc1c(C(N)=O)ncn1Cc1ccccc1 | – | > 100 µM | – | > 100 µM | – | > 100 µM | – | > 100 µM | – | – | – | – | – | > 100 µM | – | > 100 µM | – | – | – | – |
| COc1cc(/C=C2\NC(=O)C3Cc4c(OC)c(C)c(OC)c(OC)c4C2N3C)c(OC)c(C)c1OC (stereo unspecified) | – | > 100 µM | – | > 100 µM | – | > 100 µM | – | > 100 µM | – | > 100 µM | – | – | – | > 100 µM | – | > 100 µM | – | > 100 µM | – | – |
| C1C[OH+]CCNCC[OH+]CC[OH+]CCN1.N.[Cl-].[Pt+4] | 78.8 µM | > 100 µM | 54.2 µM | > 100 µM | 33.2 µM | > 100 µM | 64.6 µM | > 100 µM | > 100000 nM | > 100 µM | – | – | > 100000 nM | > 100 µM | > 100000 nM | > 100 µM | > 100 µM | > 100 µM | – | – |
| O=C1c2cc3c(cc2-c2c1c1ccc(F)cc1c(=O)n2C[C@H](O)[C@H](O)[C@H](O)CO)OCO3 | – | – | 0.18 µM | 4 µM | – | – | 0.142 µM | 0.327 µM | 209 nM | 0.831 µM | 0.0419 µM | 0.391 µM | 112 nM | 0.52 µM | 148 nM | 0.749 µM | 0.0704 µM | 2.97 µM | 1.05 µM | 0.149 µM |
| Brc1ccc(C=NC23CC4CC(CC(C4)C2)C3)cc1 | – | > 100 µM | – | > 100 µM | – | > 100 µM | – | > 100 µM | – | > 100 µM | – | – | – | > 100 µM | – | > 100 µM | – | > 100 µM | – | – |
| CCCCCCCC(=O)OCC1OC(n2cc(F)c(=O)[nH]c2=O)C(N)C(O)C1O (stereo unspecified) | – | > 100 µM | – | > 100 µM | – | – | – | > 100 µM | – | > 100 µM | – | – | – | > 100 µM | – | > 100 µM | – | > 100 µM | – | – |
| O=[N+]([O-])c1cc(I)cc(/C=N/NS(=O)(=O)c2ccc(Cl)cc2)c1O | – | 53.9 µM | – | 58.3 µM | – | 36.5 µM | – | 58.8 µM | – | 48.9 µM | – | – | – | 53.6 µM | – | 55.8 µM | – | 77.4 µM | – | – |
| C/C(CC(C)(C)N1CC1)=N\NC(=O)Nc1cccc2ccccc12 | 4.09 µM | 16.2 µM | 4.25 µM | 15.2 µM | 3.13 µM | 13.3 µM | 2.55 µM | 9.5 µM | 4080 nM | 18.8 µM | 4.35 µM | 17.3 µM | 4120 nM | 15.8 µM | 2040 nM | 5 µM | 3.72 µM | 16.2 µM | – | – |
| N#CC1(N2CCCC2)CCC2(CC1)OCCO2 | – | > 100 µM | – | > 100 µM | – | > 100 µM | – | > 100 µM | – | > 100 µM | – | – | – | > 100 µM | – | > 100 µM | – | > 100 µM | – | – |
| O=C(CC1(O)C(=O)Nc2ccc([N+](=O)[O-])cc21)c1ccncc1 (stereo unspecified) | – | 32.9 µM | – | > 100 µM | – | 29.3 µM | – | > 100 µM | – | 66.2 µM | – | – | – | > 100 µM | – | 56.5 µM | – | > 100 µM | – | – |
| COc1cc2c(c(OC)c1OC)-c1c(c3ccc([N+](=O)[O-])cc3c(=O)n1CCCBr)C2=O | > 100 µM | > 100 µM | 21 µM | 59.1 µM | 31.9 µM | > 100 µM | > 100 µM | > 100 µM | 11400 nM | 47.6 µM | – | – | 15800 nM | 54.3 µM | – | – | 4.83 µM | 45.8 µM | 97.5 µM | 35.8 µM |
| N#CC(C(=O)CCC(=O)Nc1cccc(C(F)(F)F)c1)c1ccccc1 (stereo unspecified) | – | > 100 µM | – | > 100 µM | – | > 100 µM | – | > 100 µM | – | > 100 µM | – | – | – | > 100 µM | – | > 100 µM | – | > 100 µM | – | – |
| CCC[CH2][Sn]1([CH2]CCC)[O]CC[S]1 | 0.679 µM | 2.04 µM | 0.872 µM | 2.68 µM | 0.459 µM | 1.7 µM | – | – | 299 nM | 1.39 µM | – | – | 2090 nM | 3.59 µM | 268 nM | 1.22 µM | 0.363 µM | 1.44 µM | – | – |
| CCN(CC)CCCNc1n[n+]([O-])c2ccccc2[n+]1[O-] | – | 54.7 µM | – | > 100 µM | – | – | – | 16.6 µM | – | 25.3 µM | – | 68.1 µM | – | – | – | 19.7 µM | – | > 100 µM | > 100 µM | – |
